This passage reports maximum recommended daily dose (mmol/kg-bw/day) results from PubChem BioAssay AID1195 (EPA DSSTox, 2008).

The test system of this data set is human maximum recommended daily dose, FDA database. As to the kind of experiment: DSSTox (FDAMDD) FDA Maximum (Recommended) Daily Dose Database. The conditions noted are these: active compounds read low. The method, boiled down:
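MRDD values come from clinical trials with daily oral dosing, usually for 3–12 months, for the average adult, in mg/day converted to mg/kg-bw/day assuming 60 kg. Antineoplastic mg/m2 doses are divided by 37. Activity score maps log10(1/MRDD mmol) onto 1–100.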

The mark [1] stands for this setting: TherapeuticCategory: antibacterial.

Starred links: 1 amine or outer side, 2 acyl side, 3 side chain; linkers in the order of their positions; H or OH if unused. Positions of bridges follow the written chain, without caps; N, C: chain ends. Non-standard residues stand in square brackets, D forms with d. Residues, ends and D or L forms follow the SMILES beside them. *: point of attachment. X1 = NC1=N[C@@H]([C@H](N[*:1])C(=O)[*:2])C[C@H](O)N1; ΔAla(Z-3-ureido) = NC(=O)N/C=C(\N)C(=O)O; β3hOrn = NCCC[C@H](N)CC(=O)*; Dap = NC[C@H](N)C(=O)O

Turning to `CCOC(=O)[C@H](CCc1ccccc1)N[C@@H](C)C(=O)N1Cc2ccccc2C[C@H]1C(=O)O`, the maximum recommended daily dose (mmol/kg-bw/day) (TherapeuticCategory: antihypertensive, ACE inhibitor) was 0.00303.

`CC(C)(C)NC[C@H](O)COc1nsnc1N1CCOCC1`: the maximum recommended daily dose (mmol/kg-bw/day) (TherapeuticCategory: antihypertensive, antianginal, antiarrhythmic, antiglaucomic) was 0.00316. Take `COc1cc(N)c(Cl)cc1C(=O)NC1CCN(Cc2ccccc2)CC1`: the maximum recommended daily dose (mmol/kg-bw/day) (TherapeuticCategory: antiemetic, antispasmodic) was 6.69e-05. In the case of `CCCCc1nc(Cl)c(CO)n1Cc1ccc(-c2ccccc2-c2nn[nH]n2)cc1`, the maximum recommended daily dose (mmol/kg-bw/day) (TherapeuticCategory: antihypertensive) was 0.00395. As to `CCC1(CC)C(=O)NC(=O)N(C)C1=O`, where the note is “TherapeuticCategory: anticonvulsant”, the maximum recommended daily dose (mmol/kg-bw/day) is 0.0252. Consider `Oc1c(Cl)cc(Cl)c2cccnc12`, for which the maximum recommended daily dose (mmol/kg-bw/day) (TherapeuticCategory: antiseborrhetic) is 0.312.

For the compound `C(=C\c1ccccc1)/CN1CCN(C(c2ccccc2)c2ccccc2)CC1`, the maximum recommended daily dose (mmol/kg-bw/day) (TherapeuticCategory: antihistaminic, peripheral vasodilator) was 0.0102. On to `C[N+](C)(C)CC(=O)[O-]`, for which, where the note is “TherapeuticCategory: hepatoprotectant”, the maximum recommended daily dose (mmol/kg-bw/day) is 0.0711.

In the case of `CC(=O)OCC1=C(C(=O)O)N2C(=O)[C@@H](NC(=O)CSc3ccncc3)[C@H]2SC1`, the maximum recommended daily dose (mmol/kg-bw/day) under setting [1] is 0.236.

For `CC(C)(C)c1cc(O)ccc1O`, the maximum recommended daily dose (mmol/kg-bw/day) (TherapeuticCategory: antioxidant) is 0.0012.

Turning to `CC[C@]1(O)C[C@H]2CN(CCc3c([nH]c4ccccc34)[C@@](C(=O)OC)(c3cc4c(cc3OC)N(C)[C@H]3[C@@](O)(C(N)=O)[C@H](O)[C@]5(CC)C=CCN6CC[C@]43[C@@H]65)C2)C1`, the maximum recommended daily dose (mmol/kg-bw/day) (TherapeuticCategory: antineoplastic) was 0.000143. As for `Oc1ccc2c(c1)[C@@]13CCCC[C@@]1(O)[C@@H](C2)N(CC1CCC1)CC3`, the maximum recommended daily dose (mmol/kg-bw/day) (TherapeuticCategory: narcotic analgesic) is 0.000815. On to `NS(=O)(=O)c1cc2c(cc1Cl)NC=NS2(=O)=O`, for which the maximum recommended daily dose (mmol/kg-bw/day) (TherapeuticCategory: diuretic) was 0.113. On to `CN(C)CCCOC1(Cc2ccccc2)CCCCCC1`, for which the maximum recommended daily dose (mmol/kg-bw/day) (TherapeuticCategory: vasodilator) was 0.0345. For `C[N+](C)(C)CC(O)CC(=O)[O-]` (stereo not drawn), under “TherapeuticCategory: antihyperlipoproteinemic”, the maximum recommended daily dose (mmol/kg-bw/day) was 0.104. For the compound `COc1ccc2c(c1)c(CC(=O)OCC(=O)O)c(C)n2C(=O)c1ccc(Cl)cc1`, the maximum recommended daily dose (mmol/kg-bw/day) (TherapeuticCategory: anti inflammatory) was 0.00721.

Take `C[C@H]1C[C@@H]2[C@H]([C@@H](O)C[C@@]3(C)[C@H]2CC[C@]3(O)C(=O)COC(=O)CCCCCCC(=O)N(C)CCS(=O)(=O)O)[C@@]2(C)C=CC(=O)C=C12`: the maximum recommended daily dose (mmol/kg-bw/day) (TherapeuticCategory: glucocorticoid) is 0.0061.

Consider `CC(C)(C)NCC(O)COc1ccccc1C#N` (stereo not drawn), for which, where the note is “TherapeuticCategory: antihypertensive, antianginal, antiarrhythmic”, the maximum recommended daily dose (mmol/kg-bw/day) is 0.00269. `CC1=C(C(=O)O)N2C(=O)[C@@H](NC(=O)[C@H](N)C3=CCC=CC3)[C@H]2SC1`: the maximum recommended daily dose (mmol/kg-bw/day) under setting [1] is 0.191. As for `C=CCN1CC[C@]23CCCC[C@H]2[C@H]1Cc1ccc(O)cc13`, where the note is “TherapeuticCategory: narcotic antagonist”, the maximum recommended daily dose (mmol/kg-bw/day) was 0.000235. For the compound `CC[C@H]1OC(=O)[C@H](C)[C@@H](O[C@H]2C[C@@](C)(OC)[C@@H](O)[C@H](C)O2)C(C)[C@@H](O[C@@H]2O[C@H](C)C[C@H](N(C)C)[C@H]2O)[C@](C)(OC)C[C@@H](C)C(=O)[C@H](C)[C@@H](O)[C@]1(C)O` (stereo partly drawn), the maximum recommended daily dose (mmol/kg-bw/day) under setting [1] was 0.0111.

In the case of `O=C1c2ccccc2C(=O)C1c1ccccc1`, the maximum recommended daily dose (mmol/kg-bw/day) (TherapeuticCategory: anticoagulant) is 0.015. Turning to `OC(c1ccccc1)(c1ccccc1)C1CCCCN1` (stereo not drawn), the maximum recommended daily dose (mmol/kg-bw/day) (TherapeuticCategory: CNS stimulant) was 0.000374. On to `O=C1CN2CCOC2(c2ccccc2Cl)c2cc(Cl)ccc2N1` (stereo not drawn), for which, for the setting “TherapeuticCategory: anxiolytic”, the maximum recommended daily dose (mmol/kg-bw/day) was 0.000573.

On to `C[N+]1(C)CCC(OC(=O)CC(O)(c2ccccc2)C2CCCC2)C1` (stereo not drawn), for which the maximum recommended daily dose (mmol/kg-bw/day) (TherapeuticCategory: anticholinergic) was 0.000162. Turning to `O=C(O)CC(O)(CC(=O)O)C(=O)O`, the maximum recommended daily dose (mmol/kg-bw/day) (TherapeuticCategory: bactericide) was 0.52. On to `CN(C)CCC(O)(c1ccccc1)c1ccccc1Cl` (stereo not drawn), for which the maximum recommended daily dose (mmol/kg-bw/day) (TherapeuticCategory: antitussive) was 0.00576.

With `COc1cc(N)c(Cl)cc1C(=O)NC1CCN(CCCOc2ccc(F)cc2)CC1OC` (stereo not drawn), the maximum recommended daily dose (mmol/kg-bw/day) (TherapeuticCategory: peristaltic stimulant) is 0.00285.

Regarding `CC[C@H](C)C(=O)O[C@H]1C[C@@H](C)C=C2C=C[C@H](C)[C@H](CC[C@@H]3C[C@@H](O)CC(=O)O3)[C@H]21`, under “TherapeuticCategory: antihypercholesterolemic”, the maximum recommended daily dose (mmol/kg-bw/day) is 0.00329.

Take `NS(=O)(=O)c1cc2c(cc1Cl)NC(C1CC3C=CC1C3)NS2(=O)=O` (stereo not drawn): under “TherapeuticCategory: diuretic, antihypertensive”, the maximum recommended daily dose (mmol/kg-bw/day) was 0.000256. For the compound `NCCC[C@H](N)CC(=O)N[C@H]1CNC(=O)[C@H]([C@H]2C[C@H](O)NC(N)=N2)NC(=O)/C(=C/NC(N)=O)NC(=O)[C@H](CO)NC(=O)[C@H](CO)NC1=O` (β3hOrn-[Dap]SS[ΔAla(Z-3-ureido)][X1]; lactam 1-C), the maximum recommended daily dose (mmol/kg-bw/day) under setting [1] was 0.0973. For the compound `C#CC(C)(O)CC` (stereo not drawn), the maximum recommended daily dose (mmol/kg-bw/day) (TherapeuticCategory: hypnotic, sedative) was 0.17. For the compound `CC(O)Cn1cnc2c1c(=O)n(C)c(=O)n2C` (stereo not drawn), where the note is “TherapeuticCategory: bronchodilator, vasodilator, smooth muscle relaxant”, the maximum recommended daily dose (mmol/kg-bw/day) is 0.168.
